Data reported in publication doi:10.1101/2025.02.19.639194v1, “Bioinformatics analysis identifies sequence determinants of enzymatic activity for the PHARC associated lipase ABHD12” (biorxiv, 2025).

Biological target: T1, CG15111 (Drosophila melanogaster, UniProt A1ZBH2)
T1 construct: gene Dmel\CG15111; full-length from adult fly cDNA, C-terminal FLAG tag, pRmHa3 vector, membrane fraction of transfected S2 cells
T1 sequence (A1ZBH2 1-393): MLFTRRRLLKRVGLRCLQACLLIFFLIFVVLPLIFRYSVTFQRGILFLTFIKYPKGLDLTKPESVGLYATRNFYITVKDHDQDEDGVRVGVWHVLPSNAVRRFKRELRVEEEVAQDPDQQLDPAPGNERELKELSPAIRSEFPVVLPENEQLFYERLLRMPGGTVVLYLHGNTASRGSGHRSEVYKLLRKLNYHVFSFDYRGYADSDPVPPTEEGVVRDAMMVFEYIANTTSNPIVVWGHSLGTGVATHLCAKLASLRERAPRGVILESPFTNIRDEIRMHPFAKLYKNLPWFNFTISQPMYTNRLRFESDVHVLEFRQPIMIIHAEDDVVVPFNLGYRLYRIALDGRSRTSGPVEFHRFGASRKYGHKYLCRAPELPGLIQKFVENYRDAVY
Assay: LC-MS lyso-PS lipase assay, release of C17:[…] FFA
Assay type: biochemical
Conditions: 100 uM substrate, 20 ug membrane fraction of S2 cells

Structure (SMILES): CCCCCC/C=C\CCCCCCCCC(=O)OC[C@@H](O)COP(=O)(O)OC[C@H](N)C(=O)O [C17:1 lyso-PS]
- LC-MS lyso-PS lipase assay, release of C17:1 FFA: WT CG15111 had robust lyso-PS lipase activity
